Values of other authors, collected in patent publication US20140186466A1, “NEUTRACEUTICAL FORMULATION FOR TREATMENT OF DIABETES” (Creative Medical Health Inc., priority 2012, published 2014).
Like-named read-outs stand apart in the source and are kept apart here. Each block holds one compound with its values, some of them ahead of it.

Assays:
patients with diabetes [1] = conditions: 2000 IU/daily for 18 months
tissue uptake of glucose = conditions: healthy patients and patients with type 2 diabetes
patients with diabetes [2] = conditions: 500 mg or 1000 mg three times a day, 52 weeks
[3] = tested on: patients with type 2 diabetes; conditions: 57 patients, 300 mg daily or placebo, eight weeks
type 1 diabetic patients = conditions: 51 type 1 diabetic patients; 600 mg once daily, 5 weeks
peripheral neuropathy = conditions: intravenously 600 mg/day over 3 weeks
[4] = tested on: patients with hypertension; conditions: 60 patients with hypertension; 20 mmol/d, 8 weeks
[5] = tested on: skin microvasculature of diabetic rats; conditions: streptozotocin-diabetic male Wistar rats; 10 g/l in drinking water
[6] = tested on: streptozotocin diabetic rats; conditions: 10 g/l in drinking water, eight weeks
mesenteric vascular bed = conditions: STZ diabetic rats; 10 g/L in drinking water, 8 weeks; intact and denuded endothelium
dipeptidyl peptidase-IV = dipeptidyl peptidase-IV (Homo sapiens, UniProt P27487)
dipeptidyl peptidase-IV, sequence (P27487 whole entry, species assumed): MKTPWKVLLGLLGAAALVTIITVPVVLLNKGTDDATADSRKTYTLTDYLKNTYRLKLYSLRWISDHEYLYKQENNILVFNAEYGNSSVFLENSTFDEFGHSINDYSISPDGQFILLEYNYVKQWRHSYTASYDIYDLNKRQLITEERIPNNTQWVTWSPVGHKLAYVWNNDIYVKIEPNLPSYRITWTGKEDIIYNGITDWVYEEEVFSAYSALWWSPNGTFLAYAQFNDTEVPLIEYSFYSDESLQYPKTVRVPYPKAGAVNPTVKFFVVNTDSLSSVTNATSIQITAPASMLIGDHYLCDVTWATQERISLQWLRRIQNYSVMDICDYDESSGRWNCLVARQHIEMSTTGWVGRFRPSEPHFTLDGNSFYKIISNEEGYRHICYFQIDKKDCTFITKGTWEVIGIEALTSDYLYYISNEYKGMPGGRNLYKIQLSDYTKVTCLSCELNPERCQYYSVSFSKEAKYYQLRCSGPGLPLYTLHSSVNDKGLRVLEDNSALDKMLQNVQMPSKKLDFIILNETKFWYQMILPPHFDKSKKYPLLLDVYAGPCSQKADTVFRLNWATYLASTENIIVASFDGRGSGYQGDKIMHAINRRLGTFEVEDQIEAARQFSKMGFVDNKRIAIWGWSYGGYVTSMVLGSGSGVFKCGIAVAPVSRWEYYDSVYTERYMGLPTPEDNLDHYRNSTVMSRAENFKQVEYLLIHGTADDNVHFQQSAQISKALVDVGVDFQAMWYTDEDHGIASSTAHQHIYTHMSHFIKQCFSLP

[7] = in vivo
diabetic rat brains = conditions: 0.6 mg/mL in drinking water, 4 weeks
diabetic rats [8] = conditions: 100 mg/kg, 60 days
[9] = tested on: Streptozotocin-induced diabetic animals; conditions: 4 weeks
[10] = tested on: inflammatory pathways involved in diabetic nephropathy; conditions: rat model; 22 micrograms in water for 12 weeks (8 mcg/day)
[11] = tested on: ischemia-reperfusion insult in rats; conditions: 10 mg chromium/kg diet for six weeks
diabetic rats [12] = tested on: diabetic rats
HIV-positive subjects = conditions: 1000 µg/day, eight weeks
[13] = diabetic rats, 1 mg/kg body weight

Compound: C=C1CC[C@H](O)C/C1=C/C=C1\CCC[C@]2(C)[C@@H]([C@H](C)CCCC(C)C)CC[C@@H]12 [Vitamin D3]
- serum lipid profiles (patients with diabetes [1]): beneficial effects

Compound: CC(=O)O[C@H](CC(=O)[O-])C[N+](C)(C)C [acetyl-L-carnitine]
- tissue uptake of glucose (tissue uptake of glucose): dose-dependent effects
- nerve fiber regeneration (patients with diabetes [2]): improvements
- neuropathic pain (patients with diabetes [2]): symptomatic relief

Compound: O=C(O)CCCCC1CCSS1 (stereo not drawn) [alpha lipoic acid]
- fasting blood glucose levels [3]: reduced
- measures of platelet reactivity (type 1 diabetic patients): reduced
- neuropathic pain (peripheral neuropathy): clinically relevant reduction

Compound: [O]=[Mg] [magnesium oxide]
- ambulatory BP reduction, first value of the pair [4]: 2.5 mm Hg
- ambulatory BP reduction, second value of the pair [4]: 1.4 mm Hg
- home BP decrease, first value of the pair [4]: 2.0 mm Hg
- home BP decrease, second value of the pair [4]: 1.4 mm Hg
- office BP fall, first value of the pair [4]: 3.7 mm Hg
- office BP fall, second value of the pair [4]: 1.7 mm Hg

Compound: O=S(=O)([O-])[O-].[Mg+2] [magnesium sulfate]
- endothelial relaxation stimulated with acetylcholine (Ach) or sodium nitroprusside (SNP) [5]: enhanced
- plasma glucose ([6]; STZ 40 mg/kg i.v. diabetic rats): to normal levels
- high density lipoprotein (HDL) ([6]; STZ diabetic rats): to normal levels
- low density lipoprotein (LDL) ([6]; STZ diabetic rats): to normal levels
- mesenteric fat/body weight ratio ([6]; STZ diabetic rats): reductions
- systolic blood pressure ([6]; STZ diabetic rats): to normal levels
- total cholesterol ([6]; STZ diabetic rats): to normal levels
- triglyceride ([6]; STZ diabetic rats): to normal levels
- very low density lipoprotein (VLDL) ([6]; STZ diabetic rats): to normal levels
- mean perfusion pressure of mesenteric vascular bed (mesenteric vascular bed): decrease

- dipeptidyl peptidase-IV activity (dipeptidyl peptidase-IV): inhibition
Compound: CN(C)C(=N)N=C(N)N [metformin, Metformin]
- glucose utilization [7]: increased
- leptin concentrations [7]: reduction

Compound: [Na+].[Na+].[Na+].[O]=[V]([O-])([O-])[O-] [sodium orthovanadate]
- ischemic injury in diabetic rat brains (diabetic rat brains): significantly reduced
- neurobehavioral function (diabetic rat brains): improved

Compound: O=S(=O)([O-])[O-].[O]=[V+2] [vanadyl sulfate]
- blood glucose levels (diabetic rats [8]): lower
- serum antioxidant enzyme levels in muscle tissue (diabetic rats [8]): decrease

Compound: chromium picolinate
- plasma glucose levels ([9]; 1 mg/kg body weight daily): lowered
- weight loss in diabetic animals ([9]; 1 mg/kg body weight daily): increased
- glycogen content in the livers ([9]; 1 mg/kg body weight daily, to near control levels): normalized
- action of insulin [9, 13]: potentiate
- plasma cholesterol levels [9, 13]: lower
- plasma triglyceride levels [9, 13]: lower
- activity of inflammatory pathways involved in diabetic nephropathy [10]: reducing the activity
- myocardial contractility and relaxation following ischemia-reperfusion insult [11]: recovery
- elevated hepatic and cerebral free fatty acids and malondialdehyde (diabetic rats [12]; high dose 13.20 μg Cr kg(−1) day(−1), relative to control (non-diabetic) levels): nearly normalized
- elevated hepatic and cerebral free fatty acids and malondialdehyde (diabetic rats [12]; low (human equivalent) dose 2.90 μg Cr kg(−1) day(−1)): significantly reduced
- mean rate of glucose disposal after treatment (HIV-positive subjects; eight HIV-positive subjects on antiretroviral therapy, before 4.41, range 3.19-12.78, p=0.03): 6.51 mg/kg LBM/min
- increase of mean rate of glucose disposal (HIV-positive subjects; eight HIV-positive subjects): 25%
